Patent publication US6613718B2, “Aryl ether derivatives and processes for their preparation and herbicidal and desiccant compositions containing them” (Ishihara Sangyo Kaisha, Ltd., priority 2001, dated 2003)

Key:
Format in all cases: in vivo
Settings in all cases: 14 days after application
[1] = tested on: upland rice (Oryza sp., var.Tebonnet, RICE); assay: Pre-emerge greenhouse screening, crop safety (phytotoxicity rating)
Text: (§1) A standard greenhouse herbicide activity screening system was used to evaluate the herbicidal efficacy and crop safety of these test compounds. Seven broadleaf weed species including redroot pigweed (Amaranthus retroflexus, AMARE), velvetleaf (Abutilon theophrasti, ABUTH), sicklepod (Cassia obtusifolia, CASOB), ivyleaf morningglory (Ipomoea hederacea, IPOHE), lambsquarters (Chenopodium album, CHEAL), common ragweed (Ambrosia artemisiifolia L., AMBEL), and cocklebur (Xanthium strumarium, XANST) were used as test species. Four grass weed species including green foxtail (Setaria viridis, SETVI), barnyardgrass (Echinochloa crus-galli, ECHCG), johnsongrass (Sorghum halepense, SORHA), and large crabgrass (Digitaria sanguinalis, DIGSA) were also used. In addition, three crop species, field corn (Zea mays L., var. Dekalb 535, CORN), soybean (Glycine max L., var. Pella 86, SOY), and upland rice (Oryza sp., var.Tebonnet, RICE) were included.
(§2) All plants were grown in 10 cm square plastic pots which were filled with a sandy loam soil mix. For pre-emerge tests, seeds were planted one day prior to application of the test compounds. For post-emerge tests, seeds were planted 8-21 days prior to the test to allow emergence and good foliage development prior to application of the test substances. At the time of the post-emerge application, plants of all species were usually at the 2-3 leaf stage of development.
(§3) All test compounds were dissolved in acetone and applied to the test units in a volume of 187 1/ha. Test materials were applied at rates ranging from 15 g ai/ha to 1000 g ai/ha using a track sprayer equipped with a TJ8001E even flow flat fan spray nozzle. Plants were arranged on a shelf so that the top of the canopy (post-emerge) or top of the soil surface (pre-emerge) was 40-45 cm below the nozzle. Pressurized air was used to force the test solution through the nozzle as it was mechanically advanced (via electrically driven chain drive) over the top of all test plants/pots. This application simulates a typical commercial field herbicide application.
(§4) In the post-emerge test, a commercial non-ionic surfactant was also included (0.25% v/v) to enhance wetting of the leaf surfaces of target plants. Immediately after application, test units of the pre-emerge applications were watered at the soil surface to incorporate the test materials. Subsequently, these test units were bottom-watered. Post-emerge test units were always bottom-watered.
(§5) At 14 days after application of the test materials, phytotoxicity ratings were recorded. A rating scale of 0-100 was used as previously described in Research Methods in Weed Science, 2nd edition, B. Truelove, Ed., Southern Weed Science Society, Auburn University, Auburn, Ala., 1977. Briefly, “0” corresponds to no damage and “100” corresponds to complete death of all plants in the test unit. This scale was used both to determine efficacy against weed species and damage to crop species. Herbicide activity data for various compounds of this invention, which are shown by compound No. in Tables I-VI, are shown in Tables VIII-IX.

[2] = tested on: soybean (Glycine max L., var. Pella 86, SOY); assay: as above
Text: as §1, §2, §3, §4, §5

[3] = tested on: field corn (Zea mays L., var. Dekalb 535, CORN); assay: as above
Text: as §1, §2, §3, §4, §5

[4] = tested on: barnyardgrass (Echinochloa crus-galli, ECHCG); assay: Pre-emerge greenhouse herbicide activity screening, phytotoxicity rating
Text: as §1, §2, §3, §4, §5

[5] = tested on: sicklepod (Cassia obtusifolia, CASOB); assay: as above
Text: as §1, §2, §3, §4, §5

[6] = tested on: lambsquarters (Chenopodium album, CHEAL); assay: as above
Text: as §1, §2, §3, §4, §5

[7] = tested on: ivyleaf morningglory (Ipomoea hederacea, IPOHE); assay: as above
Text: as §1, §2, §3, §4, §5

[8] = tested on: velvetleaf (Abutilon theophrasti, ABUTH); assay: as above
Text: as §1, §2, §3, §4, §5

[9] = tested on: johnsongrass (Sorghum halepense, SORHA); assay: as above
Text: as §1, §2, §3, §4, §5

[10] = tested on: common ragweed (Ambrosia artemisiifolia L., AMBEL); assay: as above
Text: as §1, §2, §3, §4, §5

[11] = tested on: green foxtail (Setaria viridis, SETVI); assay: as above
Text: as §1, §2, §3, §4, §5

[12] = tested on: redroot pigweed (Amaranthus retroflexus, AMARE); assay: as above
Text: as §1, §2, §3, §4, §5

[13] = tested on: large crabgrass (Digitaria sanguinalis, DIGSA); assay: as above
Text: as §1, §2, §3, §4, §5

[14] = tested on: field corn (Zea mays L., var. Dekalb 535, CORN); assay: Post-emerge greenhouse screening, crop safety / corn selectivity (phytotoxicity rating)
Text: as §1, §2, §3, §4, §5

[15] = tested on: upland rice (Oryza sp., var.Tebonnet, RICE); assay: Post-emerge greenhouse screening, crop safety (phytotoxicity rating)
Text: as §1, §2, §3, §4, §5

[16] = tested on: soybean (Glycine max L., var. Pella 86, SOY); assay: as above
Text: as §1, §2, §3, §4, §5

[17] = tested on: barnyardgrass (Echinochloa crus-galli, ECHCG); assay: Post-emerge greenhouse herbicide activity screening, phytotoxicity rating
Text: as §1, §2, §3, §4, §5

[18] = tested on: sicklepod (Cassia obtusifolia, CASOB); assay: as above
Text: as §1, §2, §3, §4, §5

[19] = tested on: lambsquarters (Chenopodium album, CHEAL); assay: as above
Text: as §1, §2, §3, §4, §5

[20] = tested on: ivyleaf morningglory (Ipomoea hederacea, IPOHE); assay: as above
Text: as §1, §2, §3, §4, §5

[21] = tested on: velvetleaf (Abutilon theophrasti, ABUTH); assay: as above
Text: as §1, §2, §3, §4, §5

[22] = tested on: johnsongrass (Sorghum halepense, SORHA); assay: as above
Text: as §1, §2, §3, §4, §5

[23] = tested on: common ragweed (Ambrosia artemisiifolia L., AMBEL); assay: as above
Text: as §1, §2, §3, §4, §5

[24] = tested on: green foxtail (Setaria viridis, SETVI); assay: as above
Text: as §1, §2, §3, §4, §5

[25] = tested on: redroot pigweed (Amaranthus retroflexus, AMARE); assay: as above
Text: as §1, §2, §3, §4, §5

[26] = tested on: large crabgrass (Digitaria sanguinalis, DIGSA); assay: as above
Text: as §1, §2, §3, §4, §5

SMILES: Cn1c(C(F)(F)F)cc(=O)n(-c2cc(Oc3ncccc3[N+](=O)[O-])c(Cl)cc2F)c1=S [Compound 1-9]
- RICE crop damage, phytotoxicity rating (0-100 scale) ([1]; 125 g ai/ha): 35
- RICE crop damage, phytotoxicity rating (0-100 scale) ([1]; 250 g ai/ha): 35
- SOY crop damage, phytotoxicity rating (0-100 scale) ([2]; 125 g ai/ha): 50
- SOY crop damage, phytotoxicity rating (0-100 scale) ([2]; 250 g ai/ha): 50
- CORN crop damage, phytotoxicity rating (0-100 scale) ([3]; 125 g ai/ha): 8
- CORN crop damage, phytotoxicity rating (0-100 scale) ([3]; 250 g ai/ha): 8
- ECHCG phytotoxicity rating (0-100 scale) ([4]; 125 g ai/ha): 95
- ECHCG phytotoxicity rating (0-100 scale) ([4]; 250 g ai/ha): 99
- CASOB phytotoxicity rating (0-100 scale) ([5]; 125 g ai/ha): 70
- CASOB phytotoxicity rating (0-100 scale) ([5]; 250 g ai/ha): 99
- CHEAL phytotoxicity rating (0-100 scale) ([6]; 125 g ai/ha): 100
- CHEAL phytotoxicity rating (0-100 scale) ([6]; 250 g ai/ha): 100
- IPOHE phytotoxicity rating (0-100 scale) ([7]; 125 g ai/ha): 100
- IPOHE phytotoxicity rating (0-100 scale) ([7]; 250 g ai/ha): 100
- ABUTH phytotoxicity rating (0-100 scale) ([8]; 125 g ai/ha): 100
- ABUTH phytotoxicity rating (0-100 scale) ([8]; 250 g ai/ha): 100
- SORHA phytotoxicity rating (0-100 scale) ([9]; 125 g ai/ha): 95
- SORHA phytotoxicity rating (0-100 scale) ([9]; 250 g ai/ha): 99
- AMBEL phytotoxicity rating (0-100 scale) ([10]; 125 g ai/ha): 99
- AMBEL phytotoxicity rating (0-100 scale) ([10]; 250 g ai/ha): 100
- SETVI phytotoxicity rating (0-100 scale) ([11]; 125 g ai/ha): 100
- SETVI phytotoxicity rating (0-100 scale) ([11]; 250 g ai/ha): 100
- AMARE phytotoxicity rating (0-100 scale) ([12]; 125 g ai/ha): 100
- AMARE phytotoxicity rating (0-100 scale) ([12]; 250 g ai/ha): 100
- DIGSA phytotoxicity rating (0-100 scale) ([13]; 125 g ai/ha): 98
- DIGSA phytotoxicity rating (0-100 scale) ([13]; 250 g ai/ha): 99
- CORN crop damage, phytotoxicity rating (0-100 scale) ([14]; 125 g ai/ha): 0
- CORN crop damage, phytotoxicity rating (0-100 scale) ([14]; 250 g ai/ha): 3
- RICE crop damage, phytotoxicity rating (0-100 scale) ([15]; 125 g ai/ha): 0
- RICE crop damage, phytotoxicity rating (0-100 scale) ([15]; 250 g ai/ha): 0
- SOY crop damage, phytotoxicity rating (0-100 scale) ([16]; 125 g ai/ha): 55
- SOY crop damage, phytotoxicity rating (0-100 scale) ([16]; 250 g ai/ha): 80
- ECHCG phytotoxicity rating (0-100 scale) ([17]; 125 g ai/ha): 50
- ECHCG phytotoxicity rating (0-100 scale) ([17]; 250 g ai/ha): 65
- CASOB phytotoxicity rating (0-100 scale) ([18]; 125 g ai/ha): 50
- CASOB phytotoxicity rating (0-100 scale) ([18]; 250 g ai/ha): 65
- CHEAL phytotoxicity rating (0-100 scale) ([19]; 125 g ai/ha): 100
- CHEAL phytotoxicity rating (0-100 scale) ([19]; 250 g ai/ha): 100
- IPOHE phytotoxicity rating (0-100 scale) ([20]; 125 g ai/ha): 100
- IPOHE phytotoxicity rating (0-100 scale) ([20]; 250 g ai/ha): 100
- ABUTH phytotoxicity rating (0-100 scale) ([21]; 125 g ai/ha): 100
- ABUTH phytotoxicity rating (0-100 scale) ([21]; 250 g ai/ha): 100
- SORHA phytotoxicity rating (0-100 scale) ([22]; 125 g ai/ha): 50
- SORHA phytotoxicity rating (0-100 scale) ([22]; 250 g ai/ha): 50
- AMBEL phytotoxicity rating (0-100 scale) ([23]; 125 g ai/ha): 70
- AMBEL phytotoxicity rating (0-100 scale) ([23]; 250 g ai/ha): 70
- SETVI phytotoxicity rating (0-100 scale) ([24]; 125 g ai/ha): 60
- SETVI phytotoxicity rating (0-100 scale) ([24]; 250 g ai/ha): 70
- AMARE phytotoxicity rating (0-100 scale) ([25]; 125 g ai/ha): 100
- AMARE phytotoxicity rating (0-100 scale) ([25]; 250 g ai/ha): 100
- DIGSA phytotoxicity rating (0-100 scale) ([26]; 125 g ai/ha): 50
- DIGSA phytotoxicity rating (0-100 scale) ([26]; 250 g ai/ha): 60
